According to publication PMC12311895, “Single-Molecule Protein Interactions and Unfolding Revealed by Plasmon-Enhanced Fluorescence” (Analytical Chemistry, 2025):

Assays:
[1] = target: T1, Erbin PDZ (MBP-PDZ immobilized on gold nanorods via DNA) (Homo sapiens, UniProt Q96RT1); assay: single-molecule plasmon-enhanced fluorescence binding kinetics of PDZ-peptide interaction
T1 construct: Since neither the utilized PDZ domain nor MBP contains natural cysteines; single introduced cysteine in the linker between MBP and PDZ (handle for DNA coupling); host or cells: E. coli BL21(DE3)

PDZ = conditions: reference number not printed at place (probably ref 20), cited from earlier work
Excerpt: From a double-exponential fit we extracted characteristic bound-state lifetimes of 16 ± 1 and 83 ± 16 ms, corresponding to k off values of 61 ± 5 and 12 ± 3 s^–1. The slow dissociation rate constant is similar to previously reported values for the same interaction with immobilized peptides (k off ≈ 6.3 s^–1). […] The underlying molecular mechanism leadi ... || In order to quantify association kinetics and related particle-to-particle differences, analysis is based on the average dark time (t d ) in between events (unbound-state lifetime). Together with the number of proteins per particle (n), and the concentration of the labeled peptide solution (c i ), it follows that kon=1/tdcin . The binding event frequency’s dependency on the number of proteins per particle was assessed through several measurements, using particle preparations with different average numbers of proteins per particle (Figure .D). Herein, a control sample (DNA decorated, 0 proteins ...

[2] = test system: PDZ directly conjugated to gold nanorods; assay: peptide binding to PDZ conjugated directly to gold nanorods via a cysteine linker; conditions: direct conjugation to gold nanorods via cysteine linker, no DNA
Excerpt: In this study we utilize single-crystalline GNPs (nanorods) to probe protein–protein interactions at the single-molecule level. To facilitate single-molecule studies the particles are immobilized onto a glass coverslip to enable the imaging of single nanoparticles. Before immobilization, we conjugated protein (PDZ) to the nanoparticles using a solution-phase protocol. We initially tried direct conjugation of PDZ to the gold nanorods via a cysteine linker. […] We then developed a DNA-mediated conjugation approach. This approach, through the rigid nature of double-stranded DNA, allows for control over the time-average distance between the proteins and the GNPs. This controlled distance is crucial, as it prevents a direct interaction between the protein and the gold, thereby preventing denaturation. Moreover, it still allows the proteins to be placed close to the gold nanorods, which facilitates potent fluorescence enhancement of the fluorescently labeled binding partners (Supplementary Figure 1).

[3] = unspecific binding of labeled peptide to DNA-coated gold nanoparticles without protein (negative control); conditions: DNA decorated, 0 proteins per particle; 60 ms exposure, 1 nM labeled peptide in PBS
Excerpt: 2 Characterization of the PDZ-peptide binding interactions. (A) Typical microcopy FOV of the immobilized gold nanoparticles. Each FOV (∼ 43 μm by 43 μm) typically contains around 100 stochastically immobilized particles, yielding average interparticle distances of several micrometers. A time trace of one of the gold nanoparticles is shown, on which the peptide–protein binding events can be seen as fluorescence bursts. An expanded region of the time trace showcases a few examples of individual bright-times and dark-times. (B) Typical signals obtained from peptide binding on a gold nanorod (blue) and on the glass (red). (C) Plot depicting the distribution of bright times (bound-state lifetimes) of the protein-peptide interactions, based on all recorded particles. […]
In order to quantify association kinetics and related particle-to-particle differences, analysis is based on the average dark time (t d ) in between events (unbound-state lifetime). […] The binding event frequency’s dependency on the number of proteins per particle was assessed through several measurements, using particle preparations with different average numbers of proteins per particle (Figure .D). […] Dim fluorescence signals that would have been lost in unenhanced studies can now readily be detected, giving rise to more accurate event detection, and thus, a more representative k on value.

[4] = test system: PDZ (MBP-PDZ immobilized on gold nanorods); assay: urea-mediated unfolding/refolding of immobilized PDZ, read out by peptide binding kinetics; type: biochemical
Excerpt: Next, we employed the platform to monitor protein unfolding and refolding. […] After validating that the observed event rate decrease was not caused by protein dissociation from the GNPs (Supplementary Figure 8), we next characterized the concentration dependency of this urea-mediated PDZ unfolding (Figure B). The protein-peptide binding frequency, and thus PDZ conformational integrity, clearly decreases in a urea concentration-dependent manner.
3 Urea-mediated PDZ denaturation. […] (B) Left/blue data points: PDZ-peptide binding event frequencies at different urea concentrations. To prevent cumulative and/or time-mediated influences, measurements at each concentration were performed with a fresh sample. Error bars represent the effect of each sample’s Poisson distribution of the number of proteins per particle on the average binding frequencies. Right/green data points: PDZ-peptide binding event frequencies of a similar sample, after incubation at 6.4 M urea and subsequent removal thereof. (C) Bright-time distribution of the PDZ-peptide binding events at different urea concentrations. […] The 95% confidence interval is obtained by propagating 1.96 SE of the corresponding tb fits.
5 minute steps at 5000 rpm each). After each centrifugation step, supernatants were discarded, and pellets were re-dissolved (200 µL of 25 mM HEPES (pH 7.4) after the first spin step, 200 µL of milliQ after step 2 and 3, and 150 µL of 10 mM HEPES (pH 7.4) + 0.0025 w/v% Tween20 + 1 mM MgCl2 after step 4.
For each reaction, 5.0 µL of protein-DNA conjugate was added to a 150 µL particle solution as prepared above. Added protein-DNA concentrations varied from 250 pM to 2 µM depending on the desired number of proteins per particle.
Reactions were either incubated for 2 hours at room temperature (~21 °C), or overnight in the fridge (4 °C). After incubation, 1.5 µL of 20 w/v% BSA in PBS was added to each sample, following an additional 15 minutes of incubation.
Next, samples were washed using 4 centrifugal steps (5 minutes at 5000 rpm and 4 °C each). After each spin step, supernatants were removed, and particles were re-suspended using 10 mM HEPES pH 7.4, 0.0025 w/v% Tween20, 1 mM MgCl2, 0.2 w/v% BSA (150 µL after step 1-3, 75 µL after step 4).
Functionalized gold nanoparticle concentrations were determined through absorption measurements on a Thermo Scientific Nanodrop 2000 apparatus. Fluorescence spectroscopy-based protein quantifications were performed through fluorescence measurements on a Varioskan Lux platereader (500 nm excitation, 12nm bandwidth, low dynamic range, […]
Sample preparation for microscopy measurements
Glass microscopy slides (Menzel #1.5 24*40 mm) were sonicated in MeOH for 15 minutes, and blown dry using nitrogen gas afterwards. Next, slides were plasma treated for 1 minute. Imaging spacer stickers were added to the cleaned glass slides. Particles were diluted to OD = 0.1 (at 650 nm, 1 cm pathlength) in PBS, and for each sample 50 µL was pipetted into the imaging spacer. Samples were incubated for at least 5 minutes, after which the majority of particles were firmly immobilized. Depending on the measurement, samples were used as described, or briefly washed with PBS (unfolding/refolding measurements).
Fluorescence microscopy measurements
Samples were measured through fluorescence microscopy. The utilized setup’s main components consi sted of a Coherent OBIS 637 nm laser, Nikon eclipse Ti2 microscope body, Apo TIRF 60x 1.49 NA DIC N2 Oil objective, and Prime BSI Express CMOS camera. All measurements were performed using TIRF illumination. Sample and imaging conditions […]
Table S.2. Sample and imaging conditions per experiment.
Experiment/associated Laser power (mW): Exposure (ms): Labeled peptide
Figure(s): concentration (nM):
Kinetic analysis – 50 20 1 dissociation kinetics. Figure
Kinetic analysis: association 50 60 1 […]
Peptide and urea solutions were all prepared in PBS. […]

[5] = test system: ATTO 532-PDZ decorated gold nanoparticles; assay: stability of GNP-protein conjugate to urea (fluorescence of ATTO 532-PDZ on particles); conditions: 4 M urea, 15 minutes, then exchanged for PBS; five particles, 532 nm laser
Protocol: Supplementary Figure 7. Fluorescence polarization curve of the interaction between MBP-PDZ (no DNA attached) ௣ ) + Aଶ , yields a Kd (x0) of 0.2 µM (p set to 1 and ATTO 655-labeled peptide. The fit (y =((Aଵ −Aଶ )/(1 + ቀ[௣௥௢௧௘௜௡ ]௄೏ ቁ to represent 1:1 binding). Measurement performed with 10 nM peptide in 10 mM HEPES pH 7.4, 150 mM NaCl, 0.1 v/v% Tween 20, 0.1 w/v% BSA, 1 mM DTT.
Supplementary Figure 8. Mean fluorescence intensities of five ATTO 532- PDZ decorated gold nanoparticles before and after exposure to 4 M urea. Immobilized particles were briefly imaged with a 532 nm laser before exposure to urea, with bare PBS in the bulk solution. Next, the laser was turned off, urea was added towards 4 M, and the sample was incubated for 15 minutes. Afterwards, the urea solution was exchanged for fresh PBS, the laser turned on, and fluorescence intensities measured again.
ATTO 532-labeled PDZ proteins remained on the particles.
(also on this page, place not known: inte raction =( (Aଵ −A ଶ)/(1 ቀ [௣௥௢௧௘௜௡] ௄೏ 350Polarization (mP) P1, before P1, after P2, before P2, after P3, before P3, after P4, before P4, after P5, before P5, after 8000Mean fluorescence intensity (counts))

T1 sequence (Q96RT1 1321-1410 limits assumed): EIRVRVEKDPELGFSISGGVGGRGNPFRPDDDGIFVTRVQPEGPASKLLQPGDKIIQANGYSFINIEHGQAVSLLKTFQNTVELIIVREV

## H-[C(ATTO655)]GAGRGSIDTWV-OH [ATTO 655-labeled peptide, Atto-655 labeled peptide purchased from SB Peptide]
[1]; all particles (Figure 2C), also on single particles (Supplementary Figure 6)
  distribution of bound-state lifetimes: double exponential
[1]; double-exponential fit of bright times, all recorded particles, 20 ms exposure, 50 mW 637 nm laser, TIRF, 1 nM labeled peptide in PBS
  characteristic bound-state lifetime, short component: 16 ± 1 ms
[1]; double-exponential fit of bright times, all recorded particles, 20 ms exposure, 50 mW 637 nm laser, TIRF, 1 nM labeled peptide in PBS, less frequent events
  characteristic bound-state lifetime, long component: 83 ± 16 ms
[1]; linear fit of event frequency vs average number of proteins per particle, kon=1/tdcin, 60 ms exposure, 50 mW, 1 nM labeled peptide in PBS
  k on: (1.2 ± 0.1) × 10^7 M^–1 s^–1
[1]; linear fit, intercept 0, 60 ms exposure, 1 nM labeled peptide in PBS
  slope of binding event frequency vs number of proteins per particle: 12 mHz/protein
PDZ; PAINT experiments
  k on (previously reported): ≈ 3.6 × 10^5 M^–1 s^–1
PDZ; same interaction with immobilized peptides, integration time 60 ms
  k off (previously reported): ≈ 6.3 s^–1
[2]
  peptide binding of directly conjugated PDZ: no peptide binding
[3]
  event frequency on control particles (unspecific binding): 2 mHz

## NC(N)=O [urea]
[4]; 0.2 M urea, 2 nM labeled peptide in PBS, within Poisson distribution
  average PDZ-peptide binding event frequency at 0.2 M urea: slight increase
[4]; after 6.4 M urea, time required for fluid exchange and initiation of imaging
  time for refolding of PDZ after urea removal: ≤ 1 min
[4]; based on dominant short lifetimes of double exponential fits, 2 nM labeled peptide in PBS, 40 ms exposure
  k off values at different urea concentrations: no significant deviations
[4]; bright time distributions, 2 nM labeled peptide in PBS, 40 ms exposure
  bound-state lifetimes for increasing urea concentrations: did not significantly change
[4]; pre-incubation with 6.4 M urea for 20 minutes, then washed, 2 nM labeled peptide in PBS
  PDZ-peptide binding frequency after removal of urea (refolding): recovered toward initial levels
[4]; time traces of a particle before and after 4.0 M urea, 2 nM labeled peptide in PBS
  occurrence of PDZ-peptide interactions at 4.0 M urea: terminates the occurrence of PDZ-peptide interactions
[5]
  fluorescence intensity of ATTO 532-PDZ decorated particles after urea exposure: no reduced fluorescence intensities
